Where a name gives a salt, the structure may show the parent alone.
Key:
[1] = target: T1, P2X7R (Homo sapiens, UniProt Q99572); test: Yo-Pro-1 uptake assay (Yo-Pro-1 Assay) in HEK-293 cells transiently transfected with P2X7R; type: cell-based; conditions: for remaining activity at 5 µM: HEK293, read-out: Percentage of activity remains in the presence of the compound at 5 μM, P2X7R (Yo-Pro-1 Assay); for IC50: HEK-293 cells transiently transfected with P2X7R, 30 μM bzATP as stimulus, readings 1 hour after stimulation, estimated from dose-response curves
T1 construct: expressed in transfected cells; host or cells: HEK-293
T1 sequence (Q99572 1-595): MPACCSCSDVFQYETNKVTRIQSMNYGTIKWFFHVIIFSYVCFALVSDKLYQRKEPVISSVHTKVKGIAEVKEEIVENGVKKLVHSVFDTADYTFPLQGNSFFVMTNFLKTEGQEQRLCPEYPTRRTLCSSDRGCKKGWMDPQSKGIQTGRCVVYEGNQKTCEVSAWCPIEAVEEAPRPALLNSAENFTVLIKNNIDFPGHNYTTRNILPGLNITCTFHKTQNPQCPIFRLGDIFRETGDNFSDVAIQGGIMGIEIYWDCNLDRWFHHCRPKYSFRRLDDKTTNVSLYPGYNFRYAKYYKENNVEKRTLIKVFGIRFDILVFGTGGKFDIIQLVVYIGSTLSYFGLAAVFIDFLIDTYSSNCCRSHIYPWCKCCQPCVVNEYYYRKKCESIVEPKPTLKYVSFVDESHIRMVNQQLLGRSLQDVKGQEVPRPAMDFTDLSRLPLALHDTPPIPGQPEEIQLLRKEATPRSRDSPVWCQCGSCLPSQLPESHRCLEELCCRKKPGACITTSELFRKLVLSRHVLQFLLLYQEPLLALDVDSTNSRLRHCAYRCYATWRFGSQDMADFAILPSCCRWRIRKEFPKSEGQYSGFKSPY
From the text: Yo-Pro-1 Iodide (Cat. No Y3603 from Fisher Scientific) is a fluorescent DNA-binding dye with a MW of 629 Da. This method is based upon the Yo-Pro-1 entrance to cells through the dilated or “large pore form” of P2X7R and its binding to intracellular DNA whereby it increases its fluorescence intensity (J. Pharmacol. Exp. Ther. 308, 1053-1061). The dye has an absorption spectrum compatible with excitation at 488 nm by argon laser sources and its emission wavelength is in the range of 515-575 nm. This Yo-Pro-1 uptake was measured in HEK-293 cells transiently transfected with P2X7R (J. Biol. Chem. 290, 7930-7942). In Brief, HEK-293 cells were seeded in growth medium at approximately 20,000 cells/well in a 96-well plate on day 1. Transfection was performed on day 2 using Lipofectamine 2000 with the P2X7R DNA plasmid at the concentration of 1.7 μg/ml. The transfection solution was replaced with the growth medium 4 hours later. Fluorescent assays were conducted on day 4. On day 4, the medium was removed, the cells were washed with phosphate buffered saline (PBS) (Cat. No. MT21040CV from Fisher Scientific). Then, 25 μl of PBS were first loaded to each well followed by 25 μl of various test compounds. The third 25 μl of solution contained a mixture of Yo-Pro-1 and stimulus bzATP (2′(3′)-O-(4-Benzoylbenzoyl)adenosine-5′-triphosphate tri(triethylammonium) salt). The final concentration of Yo-Pro-1 was 2.5 μM and of bzATP 30 μM. Fluorescence increases were measured every 30 minutes in a microplate device with excitation at 475 nm and emission wavelength in the range of 500-550 nm. PPADS (Pyridoxalphosphate-6-azophenyl-2′,4′-disulfonic acid tetrasodium) was used as the positive control. The wells with no test compounds added nor bzATP and only containing PBS and Yo-Pro-1 were served as the negative control (N Contl). The positive control (P Contl) wells were the same as N Contl but contained the stimulus, bzATP in this case.
Data used for analysis were from microplate readings 1 hour after bzATP stimulation. The result of each well was first normalized by its corresponding base microplate reading. The base microplate reading was the first reading right after all components were added. Then, the negative control signal was subtracted from. In the negative control, the test compound and the stimulus were replaced by PBS. An average of six highest values of the plate (AVG) were considered as 100% and the value of each well was divided by AVG and presented as the relative values in percentages.
For comparison of the antagonistic effectiveness of the compounds of this invention among P2X receptors, assays were conducted at 5 μM. Among 55 compounds tested, 29 can reduce the P2X7R activity to […] of the normal activity (Table 2).

[2] = target: T2, P2X2R (Homo sapiens, UniProt Q9UBL9); test: Receptor-mediated calcium entrance assay (Calcium Assay), P2X2R; type: cell-based; conditions: for remaining activity at 5 µM: compound at 5 μM, read-out: Percentage of activity remains in the presence of the compound at 5 μM, P2X2R (Calcium Assay)
T2 construct: expressed in transfected cells; host or cells: HEK-293
T2 sequence (Q9UBL9 1-471): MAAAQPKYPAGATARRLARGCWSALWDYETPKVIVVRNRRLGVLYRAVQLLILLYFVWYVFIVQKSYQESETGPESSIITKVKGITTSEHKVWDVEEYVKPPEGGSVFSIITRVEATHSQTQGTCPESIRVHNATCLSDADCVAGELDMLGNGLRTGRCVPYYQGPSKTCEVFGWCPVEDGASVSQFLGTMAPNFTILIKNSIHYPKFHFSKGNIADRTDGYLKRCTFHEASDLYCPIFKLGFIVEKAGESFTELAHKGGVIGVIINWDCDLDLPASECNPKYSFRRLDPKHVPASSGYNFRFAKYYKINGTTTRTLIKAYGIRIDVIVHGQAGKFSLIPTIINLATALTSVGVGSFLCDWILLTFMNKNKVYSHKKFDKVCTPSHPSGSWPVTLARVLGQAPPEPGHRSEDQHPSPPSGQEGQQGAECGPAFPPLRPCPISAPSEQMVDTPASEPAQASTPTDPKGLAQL

[3] = compound at 5 μM, 30 μM bzATP stimulus, reading 1 hour after stimulation, transfected HEK-293 cells

| Structure (SMILES) | remaining activity at 5 µM [1, 3] [%] | IC50 [1] [µM] | remaining activity at 5 µM [2] [%] | Percentage of activity remains in the presence of the compound at 5 μM, P2X7R (Yo-Pro-1 Assay) [1, 3] [%] | Percentage of activity remains in the presence of the compound at 5 μM, P2X2R (Calcium Assay) [2] [%] |
| --- | --- | --- | --- | --- | --- |
| O=C(NCCc1ccccc1)C1CCCN(S(=O)(=O)c2ccc(N3CCCC3)cc2)C1 (centres unmarked) [#25] | 36.8 | 5.1 | 70 |  |  |
| O=C(CCc1ccccc1)N1CCNCC1 [#29, hydrochloride] | 88.1 | 10.1 | 83.3 |  |  |
| O=C(CCc1ccccc1)N1CCN(S(=O)(=O)c2ccc(F)cc2)CC1 [#30] | 52.2 | 1490 | 67.5 |  |  |
| CC(C)(C)OC(=O)N1CCN(c2ccc(S(=O)(=O)N3CCN(C(=O)CCc4ccccc4)CC3)cc2)CC1 [#31] | 12.9 | 3 | 78.3 |  |  |
| O=C(CCc1ccccc1)N1CCN(S(=O)(=O)c2ccc(N3CCOCC3)cc2)CC1 [#32] | 54.3 | 3.8 | 47.8 |  |  |
| O=C(CCc1ccccc1)N1CCN(S(=O)(=O)c2ccc(NC3CCCCC3)cc2)CC1 [#33] | -8.5 | 0.4 | 83.6 |  |  |
| O=C(CCc1ccccc1)N1CCN(S(=O)(=O)c2ccc(N3CCCCC3)cc2)CC1 [#34] | 4.8 | 2.7 | 65.2 |  |  |
| O=C(CCc1ccccc1)N1CCN(S(=O)(=O)c2ccc(N3CCCC3)cc2)CC1 [#35] | 23.6 | 3.3 | 43.7 |  |  |
| CCOc1ccc(S(=O)(=O)N2CCCC(NC(=O)CCc3ccccc3)C2)cc1 (centres unmarked) [#37] | 82.7 | 28.5 | 90.3 |  |  |
| CC1CCN(c2ccc(S(=O)(=O)N3CCCC(NC(=O)CCc4ccccc4)C3)cc2)CC1 (centres unmarked) [#40] | 9.1 | 0.8 | 73.5 |  |  |
| O=C(CCc1ccccc1)NC1CCCN(S(=O)(=O)c2ccc(N3CCC(C(F)(F)F)CC3)cc2)C1 (centres unmarked) [#42] | -1.7 | 0.9 | 62.7 |  |  |
| O=C(CCc1ccccc1)NC1CCCN(S(=O)(=O)c2ccc(F)c(Cl)c2)C1 (centres unmarked) [#43] | 23.5 | 3 | 56 |  |  |
| O=C(CCc1ccccc1)NC1CCCN(c2ccc(S(=O)(=O)Nc3ccccc3)cc2)C1 (centres unmarked) [#50] | -1.1 | 0.6 | 67.2 |  |  |
| O=C(CCc1ccccc1)NC1CCCN(c2ccc(S(=O)(=O)NCc3ccco3)cc2)C1 (centres unmarked) [#52] | 36.9 | 2.2 | 72.3 |  |  |
| NS(=O)(=O)c1ccc(N2CCCC(NC(=O)CCc3ccccc3)C2)cc1 (centres unmarked) [#53] | -0.5 | 4.6 | 58 |  |  |
| O=C(CCc1ccccc1)NC1CCCN(c2ccc(S(=O)(=O)N3CCCCC3)cc2)C1 (centres unmarked) [#54] | -9.3 | 1.5 | 59.4 |  |  |
| O=C(CCc1ccccc1)NC1CCCN(c2ccc(S(=O)(=O)N3CCCC3)cc2)C1 (centres unmarked) [#55] | 4.6 | 2.9 | 52.7 |  |  |
| Cc1nc(N=Nc2ccc(S(=O)(=O)[O-])cc2S(=O)(=O)[O-])c(COP(=O)([O-])[O-])c(C=O)c1O.[Na+].[Na+].[Na+].[Na+] [PPADS, Pyridoxalphosphate-6-azophenyl-2′,4′-disulfonic acid tetrasodium, reference compound] |  |  |  | 0.7 | 6.2 |

The next lines start with results.

| remaining activity at 5 µM [1, 3] [%] | IC50 [1] [µM] | remaining activity at 5 µM [2] [%] | Structure (SMILES) | Percentage of activity remains in the presence of the compound at 5 μM, P2X7R (Yo-Pro-1 Assay) [1, 3] [%] | Percentage of activity remains in the presence of the compound at 5 μM, P2X2R (Calcium Assay) [2] [%] |
| --- | --- | --- | --- | --- | --- |
| 59 | 9.3 | 67.2 | CCCCNc1ccc(S(=O)(=O)N2CCC(C(=O)O)CC2)cc1 [#27] |  |  |
| 75.2 | 29 | 50.7 | NC(=O)c1cc(Br)cc(N2CCOCC2)c1 [#28] |  |  |
| 47.3 | 11.5 | 49.4 | CC(C)(C)OC(=O)N1CCN(c2ccc(S(=O)(=O)N3CCCC(C(=O)NCCc4ccccc4)C3)cc2)CC1 (centres unmarked) [#36] |  |  |
| 7.5 | 0.9 | 52.2 | O=C(CCc1ccccc1)NC1CCCN(S(=O)(=O)c2ccc(N3CCC(Oc4ccccc4)CC3)cc2)C1 (centres unmarked) [#38] |  |  |
| 11.1 | 3.9 | 86.6 | CC(C)OC1CCN(c2ccc(S(=O)(=O)N3CCCC(NC(=O)CCc4ccccc4)C3)cc2)CC1 (centres unmarked) [#39] |  |  |
| 18.3 | 1.8 | 61.1 | CC(C)(C)OC(=O)N1CCC(C2CCN(c3ccc(S(=O)(=O)N4CCCC(NC(=O)CCc5ccccc5)C4)cc3)CC2)CC1 (centres unmarked) [#41] |  |  |
| -5.1 | 0.1 | 83 | CC1CCCN(c2ccc(S(=O)(=O)N3CCCC(NC(=O)CCc4ccccc4)C3)cc2)C1 (centres unmarked) [#44] |  |  |
| 33.1 | 9.3 | 49.4 | O=C(CCc1ccccc1)NC1CCCN(S(=O)(=O)c2ccc(N3CCCCC3)c(Cl)c2)C1 (centres unmarked) [#45] |  |  |
| -8.6 | 3.8 | 71 | O=C(CCc1ccccc1)NC1CCCN(S(=O)(=O)c2ccc(N3CCC(F)(F)CC3)cc2)C1 (centres unmarked) [#46] |  |  |
| -7.4 | 0.1 | 65.6 | CC1CCCCN1c1ccc(S(=O)(=O)N2CCCC(NC(=O)CCc3ccccc3)C2)cc1 (centres unmarked) [#47] |  |  |
| 1.4 | 2.6 | 82.6 | CC(C)N(C(C)C)S(=O)(=O)c1ccc(N2CCCC(NC(=O)CCc3ccccc3)C2)cc1 (centres unmarked) [#49] |  |  |
| -1 | 3.1 | 81.2 | O=C(CCc1ccccc1)NC1CCCN(c2ccc(S(=O)(=O)NC3CCCCC3)cc2)C1 (centres unmarked) [#51] |  |  |
